Laboratory results as given in patent publication US11021444B2, “Antiviral compounds” (priority 2013, dated 2021).
Read-outs that look alike come from different tables or passages of the source.

Legend:
[1] = molecular target: recombinant RSV complex (Human respiratory syncytial virus A, UniProt P28887); test: RSV Polymerase Inhibition Assay; assay type: biochemical
Protocol: Standard RSV polymerase assays were conducted in the presence of 10 nM recombinant RSV complex in a reaction buffer containing Tris-HCl pH7.5, 6 mM MgCl2, and other additives and substrates including RNA oligonucleotides and radionucleotides. Standard reactions were incubated in 96-well plate format for 2 h at 30° C., in the presence of increasing concentration of inhibitor. The reaction was stopped with 90 μL of 0.1M EDTA, and the reaction product was transferred to a “reading” 96-well plate. After washing of the plate, radiolabeled RNA products were detected according to standard procedures with a Trilux Topcount scintillation counter.

[2] = Cytotoxicity Determination (CCK-8, without addition of virus); assay type: cell-based; conditions: human, 50% cytotoxicity concentration (CC50)
Protocol: (§1) CPE reduction assays are performed as described by Sidwell and Huffman et al., Appl. Microbiol. (1971) 22(5):797-801 with slight modifications. HEp-2 cells (ATCC #, CCL-23) are seeded at a density of 1,500 cells/30 μl/well into the 384-well cell plate(s) (Corning #3701) one day prior to the assay. Compounds are added into 384-well cell plates by Labcyte POD 810 Plate Assembler system. Each of the test compounds is provided to duplicate wells of a 384-well cell plate at final concentrations starting from 100 μM or 1 μM using 1/3 stepwise dilutions for 9 points. Quick-thaw Respiratory Syncytial Virus (RSV) long strain (ATCC #VR-26) stock in a 37° C. water bath. Place on ice until ready to use. Viruses are diluted to the concentration of 100 TCID50/30 μL with medium and 30 μl diluted RSV are added into related wells of 384-well cell plates. For each plate, sixteen wells are set aside as uninfected, untreated cell controls (CC), and nine wells per test plate receive virus only as a control for virus replication (VC). The final DMSO concentration of all wells is 1%. Place the plates at 37° C., 5% CO2 for 5 days.
In order to determine the compound cytotoxicity, in parallel, each of the compounds is applied to duplicate wells in a 384-well cell plate at serial final concentrations starting from 100 μM using 1/2 stepwise dilutions for 7 points without addition of virus. Incubate the cells at 37° C., 5% CO2 for 5 days. Add 6 μL CCK-8 into each well and incubate in a CO2 incubator at 37° C. for 3-4 hours.

[3] = tested on: Respiratory Syncytial Virus (RSV) long strain; test: microbe, parasite or virus in culture; assay type: cell-based; conditions: human respiratory syncytial virus, Tables A and B list compounds by EC50 band
Protocol: as §1
After 5 days incubation, observe the CPE of cells in all wells. […] Six μl of cell counting kit-8 reagent (CCK-8, Dojindo Molecular Technologies Inc., CK04-20) are added to each well, which allows colorimetric assays to determine the number of viable cells through the dehydrogenase activity detection. After 3-4 hour incubation, the absorbance of each well is measured with a spectrophotometric plate reader at 450 nm wavelength, using a 630 nm filter as background according to manufacturer's instruction.

[4] = HEp-2, 120 h, read-out: 50% effective concentration (EC50), HEp-2 cells infected with RSV long strain, 5 days, CCK-8 readout
[5] = 120 h, read-out: 50% effective concentration (EC50), HEp-2 cells infected with RSV long strain, 5 days, CCK-8 readout

Chain of recombinant RSV complex (P28887 whole entry): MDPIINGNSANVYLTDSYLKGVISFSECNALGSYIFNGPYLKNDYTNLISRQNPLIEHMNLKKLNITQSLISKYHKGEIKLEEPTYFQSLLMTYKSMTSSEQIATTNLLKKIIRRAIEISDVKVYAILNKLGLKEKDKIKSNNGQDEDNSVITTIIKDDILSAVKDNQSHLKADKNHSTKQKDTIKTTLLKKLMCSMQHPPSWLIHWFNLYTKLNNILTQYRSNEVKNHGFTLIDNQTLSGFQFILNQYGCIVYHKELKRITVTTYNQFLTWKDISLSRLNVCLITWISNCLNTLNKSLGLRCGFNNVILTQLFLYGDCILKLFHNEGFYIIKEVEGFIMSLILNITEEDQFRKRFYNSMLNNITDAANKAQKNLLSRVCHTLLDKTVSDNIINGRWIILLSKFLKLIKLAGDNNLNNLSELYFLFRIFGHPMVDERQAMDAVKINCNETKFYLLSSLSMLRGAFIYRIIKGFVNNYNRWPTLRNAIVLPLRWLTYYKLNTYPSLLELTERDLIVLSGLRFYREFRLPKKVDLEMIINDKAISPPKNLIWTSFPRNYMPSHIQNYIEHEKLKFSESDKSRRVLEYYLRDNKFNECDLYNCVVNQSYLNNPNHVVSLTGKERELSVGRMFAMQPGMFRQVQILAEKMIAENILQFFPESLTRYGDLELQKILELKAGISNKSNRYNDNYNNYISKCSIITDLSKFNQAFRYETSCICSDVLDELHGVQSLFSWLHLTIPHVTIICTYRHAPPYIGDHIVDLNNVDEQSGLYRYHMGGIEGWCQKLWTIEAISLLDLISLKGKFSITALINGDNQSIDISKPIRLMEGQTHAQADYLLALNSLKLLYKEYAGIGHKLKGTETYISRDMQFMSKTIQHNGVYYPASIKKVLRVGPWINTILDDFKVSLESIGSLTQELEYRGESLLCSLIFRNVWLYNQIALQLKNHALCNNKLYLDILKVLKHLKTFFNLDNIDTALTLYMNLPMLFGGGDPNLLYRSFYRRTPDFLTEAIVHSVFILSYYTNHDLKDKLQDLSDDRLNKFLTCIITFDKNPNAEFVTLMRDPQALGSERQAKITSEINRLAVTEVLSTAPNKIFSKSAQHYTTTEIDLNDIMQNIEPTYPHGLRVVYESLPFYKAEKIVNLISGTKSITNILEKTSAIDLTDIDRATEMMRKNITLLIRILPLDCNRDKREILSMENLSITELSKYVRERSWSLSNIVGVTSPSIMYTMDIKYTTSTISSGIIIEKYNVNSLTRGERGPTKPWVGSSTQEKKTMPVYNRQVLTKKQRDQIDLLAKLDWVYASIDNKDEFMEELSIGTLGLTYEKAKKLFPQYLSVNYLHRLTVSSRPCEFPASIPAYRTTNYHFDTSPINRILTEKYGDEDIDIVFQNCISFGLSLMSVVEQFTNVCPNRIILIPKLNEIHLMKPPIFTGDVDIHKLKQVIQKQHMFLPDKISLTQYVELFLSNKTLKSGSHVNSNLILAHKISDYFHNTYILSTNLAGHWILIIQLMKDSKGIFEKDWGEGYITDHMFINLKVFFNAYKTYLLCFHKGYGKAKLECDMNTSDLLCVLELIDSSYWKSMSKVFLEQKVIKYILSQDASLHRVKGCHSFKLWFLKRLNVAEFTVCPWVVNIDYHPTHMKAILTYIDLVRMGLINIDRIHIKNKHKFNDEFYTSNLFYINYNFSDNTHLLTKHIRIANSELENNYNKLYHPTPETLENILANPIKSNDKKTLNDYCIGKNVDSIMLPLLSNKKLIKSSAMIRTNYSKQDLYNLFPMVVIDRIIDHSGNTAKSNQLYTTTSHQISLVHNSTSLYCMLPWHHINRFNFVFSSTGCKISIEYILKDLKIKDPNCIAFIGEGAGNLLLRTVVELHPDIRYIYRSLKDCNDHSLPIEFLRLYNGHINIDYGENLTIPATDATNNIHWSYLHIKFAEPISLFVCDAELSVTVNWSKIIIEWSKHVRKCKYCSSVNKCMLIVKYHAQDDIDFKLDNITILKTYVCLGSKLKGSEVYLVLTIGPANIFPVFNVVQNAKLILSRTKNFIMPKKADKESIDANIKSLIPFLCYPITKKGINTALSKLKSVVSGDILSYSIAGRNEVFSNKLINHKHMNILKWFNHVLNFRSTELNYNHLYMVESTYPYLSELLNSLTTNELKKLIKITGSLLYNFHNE
Chain of recombinant RSV complex (P03421 whole entry, further chain): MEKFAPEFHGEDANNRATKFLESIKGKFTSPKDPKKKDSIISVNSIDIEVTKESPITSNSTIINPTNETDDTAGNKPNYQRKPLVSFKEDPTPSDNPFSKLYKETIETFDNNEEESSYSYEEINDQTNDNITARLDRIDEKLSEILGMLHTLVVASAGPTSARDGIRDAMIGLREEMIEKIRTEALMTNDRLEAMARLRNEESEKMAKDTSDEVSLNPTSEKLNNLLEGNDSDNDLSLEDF

Compound	IC50 [1]	CC50 at 5 days [2]	EC50 [3, 4]	EC50 [3, 5]
COc1cc(C(=O)NCC(O)(c2ccc(OC)c(-c3ccc(F)c(Cl)c3)n2)C(F)(F)F)ccc1OCC(N)=O (single isomer, unassigned) [Compound 238]	< 1 µM	10 to 100 µM	< 1 µM	–
COc1cc(C(=O)NCC(O)(c2ccc(OC)c(-c3ccc(F)c(Cl)c3)n2)C(F)(F)F)ccc1OC1CC1 (single isomer, unassigned) [Compound 247]	< 10 µM	> 100 µM	–	–
COc1cc(C(=O)NCC(C)(O)c2cc3c(c(-c4ccc(F)c(Cl)c4)n2)NCC3)ccc1OCCF (single isomer, unassigned) [Compound 294]	< 10 µM	> 100 µM	< 1 µM	–
COc1cc(C(=O)NCC(C)(O)c2cc3cc[nH]c3c(-c3ccc(F)c(Cl)c3)n2)ccc1OCCF (single isomer, unassigned) [Compound 296]	< 10 µM	10 to 100 µM	< 1 µM	–
COc1cc(-c2csc3c(F)cccc23)nc(C(O)CNC(=O)c2ccc(OC)c(OC)c2)c1 (stereo not drawn) [Compound 100]	–	10 to 100 µM	–	1 to 50 µM
COc1cc(C(=O)NCC(C)(O)c2cc(CO)cc(-c3ccc(F)c(Cl)c3)n2)ccc1OCC1CC1 (stereo not drawn) [Compound 101]	< 1 µM	10 to 100 µM	< 1 µM	–
CCCn1nc(C(O)CNC(=O)c2ccc(OC)c(OC)c2)nc1-c1csc2c(F)cccc12 (stereo not drawn) [Compound 107]	–	10 to 100 µM	–	1 to 50 µM
COc1ccc(C(=O)NCC(O)c2csc(-c3csc4c(F)cccc34)n2)cc1OC (stereo not drawn) [Compound 108]	–	> 100 µM	–	1 to 50 µM
COc1cc(C(=O)NCC(C)(O)c2ncc(OC)c(-c3ccc(F)c(Cl)c3)n2)ccc1OCCO (stereo not drawn) [Compound 109]	< 10 µM	> 100 µM	1 to 50 µM	–
COc1cc(-c2csc3c(F)cccc23)nc(C(O)CNC(=O)c2cc(OC)c(OC)cc2O)c1 (stereo not drawn) [Compound 110]	–	10 to 100 µM	–	–
COc1ccc(C(=O)NCC(O)c2cc(C)cc(-c3csc4c(F)cccc34)n2)cc1OC (stereo not drawn) [Compound 111]	–	10 to 100 µM	–	1 to 50 µM
COc1cc(C(O)CNC(=O)c2ccc(OC)c(OC)c2)nc(-c2csc3c(F)cccc23)n1 (stereo not drawn) [Compound 112]	–	10 to 100 µM	–	1 to 50 µM
COc1ccc(C(=O)NCC(O)c2nc(-c3csc4c(F)cccc34)n3ccccc23)cc1OC (stereo not drawn) [Compound 113]	–	10 to 100 µM	–	1 to 50 µM
COCc1ccc(C(=O)NCC(C)(O)c2ccc(OC)c(-c3ccc(F)c(Cl)c3)n2)cc1OC (stereo not drawn) [Compound 114]	< 10 µM	10 to 100 µM	1 to 50 µM	–
CNC(=O)COc1ccc(C(=O)NCC(C)(O)c2cccc(-c3ccc(F)c(Cl)c3)n2)cc1OC (stereo not drawn) [Compound 121]	–	> 100 µM	–	1 to 50 µM
COc1cc(-c2csc3c(F)cccc23)nc(C(O)CNC(=O)c2ccc(OC)c(OC)c2)n1 (stereo not drawn) [Compound 131]	–	10 to 100 µM	–	1 to 50 µM
COc1ccc(C(=O)NCC(O)c2nc(-c3csc4c(F)cccc34)c[nH]2)cc1OC (stereo not drawn) [Compound 132]	–	10 to 100 µM	–	1 to 50 µM
COc1ccc(C(=O)NCC(O)c2nc(-c3csc4c(F)cccc34)cn2C)cc1OC (stereo not drawn) [Compound 133]	–	10 to 100 µM	–	1 to 50 µM
COc1ccc(C(=O)NCC(O)c2nc(-c3csc4c(F)cccc34)cs2)cc1OC (stereo not drawn) [Compound 134]	–	10 to 100 µM	–	1 to 50 µM
COc1cc(C(=O)NCC2(c3ccc(OC)c(-c4ccc(F)c(Cl)c4)n3)CNC(=O)O2)ccc1OCCO (stereo not drawn) [Compound 180]	< 100 µM	> 100 µM	–	–
COc1cc(C(=O)NCC(O)(CN(CCN)CC(=O)O)c2ccc(OC)c(-c3ccc(F)c(Cl)c3)n2)ccc1OCCO (stereo not drawn) [Compound 183]	< 1 µM	> 100 µM	–	–
COc1cc(C(=O)NCC(=O)c2cc3c(c(-c4ccc(F)c(Cl)c4)n2)OCC3(C)C)cc2c(C)ccnc12 [Compound 229]	–	> 100 µM	–	1 to 50 µM
COc1ccc(C(O)(CNC(=O)c2ccc3ncccc3c2OC)C(F)(F)F)nc1-c1ccc(F)c(Cl)c1 (stereo not drawn) [Compound 269]	–	10 to 100 µM	–	–

Compound	IC50 [1]	CC50 at 5 days [2]	EC50 [3, 4]	EC50 [3, 5]
CC(C)(N)c1cc(-c2ccc(F)c(Cl)c2)nc(C(O)(CNC(=O)c2ccc3c(c2)OCO3)C(F)(F)F)c1 (stereo not drawn) [Compound 274]	< 1 µM	–	< 1 µM	–
CC(C)(N)c1cc(-c2ccc(F)c(Cl)c2)nc(C(O)(CNC(=O)c2cnc(Cl)s2)C(F)(F)F)c1 (stereo not drawn) [Compound 276]	< 1 µM	–	1 to 50 µM	–
CC(C)(N)c1cc(-c2ccc(F)c(Cl)c2)nc(C(O)(CNC(=O)c2csc(Cl)n2)C(F)(F)F)c1 (stereo not drawn) [Compound 280]	< 1 µM	–	–	1 to 50 µM
COc1ccc(C(=O)NCC(O)(c2ccc(OC)c(-c3ccc(F)c(Cl)c3)n2)C(F)(F)F)cc1OC (stereo not drawn) [Compound 337]	–	10 to 100 µM	1 to 50 µM	–
COc1cc(C(=O)NCC(O)(c2ccc(OC)c(-c3ccc(F)c(Cl)c3)n2)C(F)(F)F)ccc1OC1CCCNC1=O (stereo not drawn) [Compound 340]	–	10 to 100 µM	–	< 1 µM
COc1cc(C(=O)NCC(O)(c2ccc(OC)c(C3COc4c(F)cccc43)n2)C2CC2)ccc1OCCO (stereo not drawn) [Compound 427]	< 100 µM	> 100 µM	–	–
COc1cc(C(=O)NCC(O)(c2ccc(OC)c(-c3ccc(F)c(Cl)c3)n2)C2CC2)ccc1OCC(N)=O (stereo not drawn) [Compound 429]	–	10 to 100 µM	–	< 1 µM
COc1cc(C(=O)NCC(O)(c2ccc(OC)c(-c3ccc(F)c(Cl)c3)n2)C2CC2)ccc1CCO (stereo not drawn) [Compound 433]	–	10 to 100 µM	–	< 1 µM
COc1cc(C(=O)NCC(C)(O)c2cccc(-c3ccc(F)c(Cl)c3)c2)ccc1OCCO (stereo not drawn) [Compound 439]	< 100 µM	> 100 µM	–	–
COc1cc(C(=O)NCC(C)(O)c2csc(-c3ccc(F)c(Cl)c3)n2)ccc1OCCO (stereo not drawn) [Compound 441]	< 100 µM	> 100 µM	–	–
COc1cc(C(=O)NCC(O)(c2ccc(OC)c(-c3cnc(Cl)s3)n2)C(F)(F)F)ccc1OCCO (stereo not drawn) [Compound 468]	–	10 to 100 µM	–	–
CC(C)(N)c1cc(-c2ccc(F)c(Cl)c2)nc(C(O)(CNC(=O)c2coc(Cl)n2)C(F)(F)F)c1 (stereo not drawn) [Compound 478]	< 10 µM	–	1 to 50 µM	–
COc1cc(C(=O)NCC(O)(c2cc(CCCN)cc(-c3ccc(F)c(Cl)c3)n2)C(F)(F)F)ccc1OC1CC1 (stereo not drawn) [Compound 591]	< 1 µM	–	< 1 µM	–
COc1cc(C(=O)NC[C@](O)(c2cc3c(c(-c4ccc(C#N)cc4)n2)OC[C@@]3(C)N)C(F)(F)F)ccc1OCCO [Compound 604c]	< 10 µM	10 to 100 µM	–	–
CC(C)(N)c1cc(-c2ccc(F)cc2)nc(C(O)(CNC(=O)c2cnc[nH]2)C(F)(F)F)c1 (stereo not drawn) [Compound 613]	< 10 µM	> 100 µM	–	–
COc1cc(C(=O)NCC(O)(c2cc(C(C)(C)N)cc(-c3ccc(F)c(Cl)c3)n2)C(F)(F)F)ccc1OCc1nnn[nH]1 (stereo not drawn) [Compound 616]	< 10 µM	> 100 µM	–	–
CCOC(=O)COc1ccc(C(=O)NCC(O)(c2cc(C(C)(C)N)cc(-c3ccc(F)c(Cl)c3)n2)C(F)(F)F)cc1OC (stereo not drawn) [Compound 617]	< 1 µM	10 to 100 µM	–	–
COc1cc(C(=O)NCC(O)(c2cc(C(C)(C)N)cc(-c3ccc(C#N)cc3)n2)C(F)(F)F)ccc1OCC(N)=O (stereo not drawn) [Compound 625]	< 1 µM	> 100 µM	–	–
COc1cc(C(=O)NCC(O)(c2cc(C(C)(N)C(F)F)cc(-c3ccc(F)cc3)n2)C(F)(F)F)ccc1OCCO (stereo not drawn) [Compound 669]	< 1 µM	–	–	–
COc1cc(C(=O)NCC(O)(c2cc3c(c(-c4ccnc(C)c4)n2)OCC3(C)N)C(F)(F)F)ccc1OCCO (stereo not drawn) [Compound 670]	–	> 100 µM	–	–
COc1cc(C(=O)NCC(O)(c2cc3c(c(-c4ccc(C)nc4)n2)OCC3(C)N)C(F)(F)F)ccc1OCCO (stereo not drawn) [Compound 671]	–	> 100 µM	–	–
COc1cc(C(=O)NCC(O)(c2cc3c(c(-c4ccc(C(N)=O)cc4)n2)OCC3(C)N)C(F)(F)F)ccc1OCCO (stereo not drawn) [Compound 674]	–	> 100 µM	–	–
COc1cc(C(=O)NCC(O)(c2cc(C(C)(N)CF)cc(-c3ccc(F)cc3)n2)C(F)(F)F)ccc1OCCO (stereo not drawn) [Compound 676]	< 1 µM	–	–	–
